# Data reported in paper PMC7822874, “Chemoprotective antimalarials identified through quantitative high-throughput screening of Plasmodium blood and liver stage parasites” (Scientific Reports, 2021).
# Several values for one entry are separate records, joined by “and”; a condition that tells them apart may be missing. Equal entries are not always repeated.
# Assays:
# [1] = tested on: T1, Plasmodium falciparum Dd2-attB-ScDHODH (transgenic line expressing yeast DHODH), asexual blood stages; experiment: organism not typed; parameters: replicate k of 3 (each line is one of three independent assays; the three lines of one compound and parasite line follow each other)
# T1 construct: Dd2-attB-ScDHODH, the transgenic line that expresses yeast DHODH
# Protocol: (§1) The overexpression of the fumarate-dependent yeast DHODH confers resistance to compounds that inhibit the parasite mETC, or the parasite DHODH enzyme that depends on ubiquinone provided by the parasite mETC. Assays were performed in three independent assays on a subset of compounds, and differences between the Dd2-attB parental line and the ScDHODH transgenic line were analyzed using two-sided Student’s t-tests.
# [2] = tested on: T2, Plasmodium falciparum Dd2-attB (parental line), asexual blood stages; experiment: microbe, parasite or virus in culture; parameters: replicate k of 3 (each line is one of three independent assays; the three lines of one compound and parasite line follow each other); details: n = 1; for Individual replicates / Log AC50 (M): 72 h; for AC50: Plasmodium falciparum, DD2, 72 h, read-out: Individual replicates / Log AC50 (converted)
# T2 construct: Dd2-attB, the isogenic parental line
# Protocol: as §1
# [3] = 72 h; n = 1; read-out: Individual replicates / Log AC50 (converted)
Structure (SMILES),"Individual replicates / Log AC50 (M) ([1]; 72 h, n = 1)",Individual replicates / Log AC50 (M) [2],Individual replicates / Log AC50 (M) ([1]; 72 h; n = 1),"AC50 [1, 3]",AC50 [2]
CC(C)c1c(-c2cnn(C(C)(C)C)c2)[nH]c2c(C#N)cnn2c1=O [NCGC00488278-03],-4.8986 Log AC50 (M),-4.7486 Log AC50 (M),–,–,–
O=C(O)c1ccc(O)c2ncc(N3CCC(N4CCOCC4)C3)cc12 (centres unmarked) [NCGC00241757-01],–,-4.9486 Log AC50 (M) and -4.7986 Log AC50 (M),-4.7986 Log AC50 (M),15.9 µM,10 µM
COC(=O)c1ccc(O)c2ncc(N3CC[C@H](N)C3)cc12 [NCGC00241042-01],-4.7486 Log AC50 (M),-4.9986 Log AC50 (M) and -4.8486 Log AC50 (M),–,17.8 µM,17.8 µM
COC(=O)c1ccc(O)c2ncc(N3CCOCC3)cc12 [NCGC00262492-01],-5.2986 Log AC50 (M),-5.3486 Log AC50 (M) and -5.3986 Log AC50 (M),–,5.64 µM,5.64 µM
CN(C)c1cnc2c(O)ccc(C(=O)O)c2c1 [NCGC00189499-01],-4.9486 Log AC50 (M),-4.7486 Log AC50 (M),–,14.2 µM,14.2 µM
Cc1ccc(C(CCN2CCCCC2)c2cc3cccc(C(N)=O)c3[nH]2)cc1 (centres unmarked) [NCGC00389183-01],-5.3486 Log AC50 (M) and -5.0986 Log AC50 (M),-5.2486 Log AC50 (M),–,5.03 µM,5.03 µM
O=C(O)c1ccnc(-n2ncc(C(OCCN3CCCCC3)c3cccc(-c4ccccc4)c3)c2-c2cccc(-c3ccccc3)c2)c1 (centres unmarked) [NCGC00487052-01],-5.4986 Log AC50 (M) and -5.2986 Log AC50 (M) (2×),-5.3986 Log AC50 (M),–,–,4.48 µM
CN(C)C(=S)SN(C)C(=O)Nc1ccccc1 [NCGC00386444-01],-5.7986 Log AC50 (M),-5.7986 Log AC50 (M),–,2.25 µM,1.78 µM
O=C(NCCN1CCOCC1)c1cccc(-c2cc(O)c3ncccc3c2)c1 [NCGC00244535-01],-5.1986 Log AC50 (M) and -4.7986 Log AC50 (M),-4.8986 Log AC50 (M) and -5.0986 Log AC50 (M),–,–,6.33 µM
Cc1ccc(CN2CCN(c3cnc4c(O)ccc(C(=O)O)c4c3)CC2)cc1 [NCGC00249379-01],-4.8486 Log AC50 (M) and -4.7486 Log AC50 (M),-4.7986 Log AC50 (M),–,15.9 µM,17.8 µM
O=C(O)c1ccc(O)c2ncc(-c3ccc(C(=O)N4CCNCC4)cc3)cc12 [NCGC00189508-01],-4.7486 Log AC50 (M),-4.7486 Log AC50 (M) and -4.7986 Log AC50 (M),–,15.9 µM,15.9 µM
CC(=O)Nc1cccc(-c2csc(Nc3cc(C)ccn3)n2)c1 [MLS000550799-02],-4.7486 Log AC50 (M),-4.7486 Log AC50 (M) and -5.0986 Log AC50 (M) and -4.9486 Log AC50 (M),–,–,–
CN(C)C(=O)c1cccc(-c2cc(O)c3ncccc3c2)c1 [NCGC00244525-01],-5.1986 Log AC50 (M) and -5.0986 Log AC50 (M),-5.2486 Log AC50 (M) and -5.1486 Log AC50 (M),–,6.33 µM,7.1 µM
COC(=O)c1ccc(O)c2ncc(NC3CCNC3)cc12 (centres unmarked) [NCGC00241040-01],–,-4.7486 Log AC50 (M) and -4.8486 Log AC50 (M),-4.7986 Log AC50 (M),15.9 µM,14.2 µM
CC(=O)Nc1cccc(-c2csc(Nc3cc(C)ccn3)n2)c1 [NCGC00357426-01],-4.8486 Log AC50 (M),-4.8486 Log AC50 (M) (2×) and -4.7986 Log AC50 (M),–,–,–
Cc1ccc(NC2=C(c3ccc(C(F)(F)F)cc3)C(=O)c3ccccc32)cc1F [NCGC00107266-02],-5.2986 Log AC50 (M) and -5.1986 Log AC50 (M) and -5.5486 Log AC50 (M),-6.3986 Log AC50 (M) and -6.3486 Log AC50 (M) (2×),–,–,–

Structure (SMILES),"Individual replicates / Log AC50 (M) ([1]; 72 h, n = 1)",Individual replicates / Log AC50 (M) [2],Individual replicates / Log AC50 (M) ([1]; 72 h; n = 1),"AC50 [1, 3]",AC50 [2]
CN1CCN(Cc2cc(COCc3ccccc3)c3cccnc3c2O)CC1 [NCGC00052276-02],-5.2986 Log AC50 (M) (2×) and -4.9486 Log AC50 (M),-5.1986 Log AC50 (M) and -5.0486 Log AC50 (M),–,–,5.03 µM
O=C(NCCCCCN1CCOCC1)c1cccc(-c2cc(O)c3ncccc3c2)c1 [NCGC00249387-01],-4.6986 Log AC50 (M) and -5.0486 Log AC50 (M) and -4.7986 Log AC50 (M),-4.9986 Log AC50 (M),–,–,7.1 µM
O=[S+]([O-])(Nc1ccc(O)c2ncccc12)c1ccccc1F [NCGC00184887-01],–,-5.0986 Log AC50 (M) and -5.1486 Log AC50 (M),–,14.2 µM,14.2 µM
COC(=O)c1ccc(O)c2ncc(NC3CCNCC3)cc12 [NCGC00241038-01],-4.8986 Log AC50 (M) and -5.0986 Log AC50 (M),-5.1986 Log AC50 (M) and -5.0486 Log AC50 (M),–,7.1 µM,8.94 µM
COC(=O)c1ccnc2cc(C(OCCC3CCCN3C)c3ccccc3Cl)sc12 (centres unmarked) [NCGC00481040-01],-4.8486 Log AC50 (M),-5.0986 Log AC50 (M) and -4.9486 Log AC50 (M),–,12.6 µM,8.94 µM
CC(c1ccccc1)N1CCN(c2cnc3c(O)ccc(C(=O)O)c3c2)CC1 (centres unmarked) [NCGC00247745-01],-4.7986 Log AC50 (M) and -4.7486 Log AC50 (M),-4.8486 Log AC50 (M) and -4.7486 Log AC50 (M),–,17.8 µM,15.9 µM
O=C(/C=C/c1cn(CC(O)CN2CCCCCC2)c2ccccc12)c1ccc(Br)cc1 (centres unmarked) [NCGC00114921-03],-5.0486 Log AC50 (M) and -5.1986 Log AC50 (M),-5.2486 Log AC50 (M) and -5.0986 Log AC50 (M),–,4.48 µM,4.48 µM
COC(=O)c1ccc(O)c2ncc(N(C)C)cc12 [NCGC00189506-01],-5.0486 Log AC50 (M),-5.0986 Log AC50 (M) and -5.1486 Log AC50 (M),–,14.2 µM,7.97 µM
Cc1ccc(C)c(NC2=C(c3ccc(C(F)(F)F)cc3)C(=O)c3ccccc32)c1 [NCGC00107302-02],-5.0486 Log AC50 (M) and -4.9486 Log AC50 (M) and -4.9986 Log AC50 (M),-5.8486 Log AC50 (M) and -5.6486 Log AC50 (M) (2×),–,–,–
O=C(NCCCc1ccccc1)c1cccc(-c2cc(O)c3ncccc3c2)c1 [NCGC00244536-01],-4.8986 Log AC50 (M),-5.2486 Log AC50 (M) and -5.1986 Log AC50 (M),–,–,7.1 µM
Oc1ccc(COCc2ccc(F)cc2)c2cccnc12 [NCGC00183381-01],-4.7486 Log AC50 (M) and -4.7986 Log AC50 (M),-4.7986 Log AC50 (M),–,15.9 µM,17.8 µM
Oc1ccc(Oc2ccccc2F)c2cccnc12 [NCGC00184907-01],-4.8986 Log AC50 (M) and -4.9486 Log AC50 (M),-4.9986 Log AC50 (M) and -5.0486 Log AC50 (M),–,14.2 µM,8.94 µM
CCOC(=O)c1ccnc2cc(C(OCCN3CCCCC3)c3ccccc3Cl)sc12 (centres unmarked) [NCGC00481512-01],-5.1986 Log AC50 (M) and -5.0986 Log AC50 (M),-5.1486 Log AC50 (M),–,7.97 µM,5.64 µM
Oc1ccc(-c2ccccc2F)c2cccnc12 [NCGC00184901-01],-4.8486 Log AC50 (M) and -4.7986 Log AC50 (M),-4.8486 Log AC50 (M) and -4.8986 Log AC50 (M),–,14.2 µM,15.9 µM
O=C(O)c1ccnc2cc(C(OCCCN3CCCCC3)c3ccccc3Cl)[nH]c12 (centres unmarked) [NCGC00421948-01],–,-4.9486 Log AC50 (M),–,5.03 µM,7.97 µM
